# Measurements from US12465650B2, “Methods and compositions for targeting cancer cells in metastases” (THE BOARD OF REGENTS OF THE UNIVERSITY OF TEXAS SYSTEM, priority 2021, dated 2025).
# Bridge positions count the residues as written; N and C are the ends. Ends that are not written are not given here.
# What was measured:
# [1] = tested on: Murine 3T3L1 preadipocytes; experiment: anti-phage immunofluorescence, uptake by negative control cells; format: cell-based
# Protocol: (§1) Immunofluorescence for tissue and cell analysis: Immunofluorescence on cells and formalin-fixed paraffin-embedded tissue sections was performed as described Zhang et al., 2012). Primary antibodies used: rabbit anti-Fd bacteriophage (Sigma Aldrich, 1:500), rabbit anti-Asp175-cleaved Caspase3 (Cell Signaling Technology, 1:100), mouse anti-E Cadherin and mouse anti-N Cadherin (BD Biosciences, 1:100). Secondary antibodies used: donkey Alexa 488-conjugated IgG (Invitrogen, 1:300) and Cy3-conjugated IgG (Jackson ImmunoResearch, 1:300). Biotinylated peptide internalization was visualized with Cy3-conjugated streptavidin IgG (Thermo Fischer Scientific, 1:50). Nuclei were stained with Hoechst 33258 (Invitrogen, 1:2000). Tissue and cell images were acquired with a Nikon Eclipse TE2000E Widefield Fluorescence Microscope (Nikon Instruments Inc.). Image quantification included 5 random microscopic fields of view at 20× magnification. Images were processed and analyzed with ImageJ software (NIH and University of Wisconsin). Cadherin co-localization was quantified based on the previously described ImageJ software object based-approach (JACoP) methodology based on the Mander's coefficient (Bolte and Cordelieres, 2006).
# (§2) Murine 3T3L1 preadipocytes were used as a negative control and uptake was not observed for BLMP6-phage (FIG. 1C).
# [2] = tested on: mCherry-positive metastatic tumor cells (4T1.2); experiment: in vivo bio-panning of CX7C/CX8C phage-peptide library for lung metastasis-homing peptides; design: species or system Balb/c mice; details: p≤0.0001
# Protocol: Animal experiments: Rodent studies were authorized by the Institutional Animal Care and Use Committees of UTHealth. Spontaneous cancer progression was modelled by injecting 2×10^4 4 T1.2 (mCherry+ Luciferase+) cells into the mammary fat pad of 10-week-old female Balb/c mice (Jackson Laboratory) with a 31-gauge needle. Primary tumor volume was measured weekly with calipers and calculated using the (length×width^2)/2 formula. At a tumor volume of ˜200 mm^3, mice were randomized into two cohorts and administered either vehicle (1×PBS) or cisplatin (Tocris Biosciences; 2.5 mg/kg) retro-orbitally once a week for three weeks. Metastatic progression was monitored with bioluminescence imaging. For experimental metastasis modeling in C57BL/6 mice (Jackson Laboratory), 1×10^5 B16F10 cells were intravenously injected into the tail vein and mice were used after 2 weeks. In both mice models, pulmonary metastases were observed 3 weeks post implantation. […] Selected phage were amplified through K91 E. coli infection and quantified via TU counting. For each round, clone enrichment was quantified based on recovery frequency among 96 phage peptide-coding inserts sequenced from PCR-amplified phage DNA (Kolonin et al., 2004). […] Radioactive uptake was measured using a Cobra II automated gamma counter (Packard) and expressed as percentage of the injected dose per gram tissue (% ID/g tissue). […]
# [3] = tested on: MDA-MB-231 human TNBC cells; experiment: phage-peptide clone binding to human TNBC cells; format: cell-based; details: phage-displayed
# From the text: as §2
# [4] = tested on: 4T1.2 spontaneous metastases; experiment: in vivo homing of individual phage-peptide clones, 4T1.2 model; design: species or system Balb/c mice; details: mouse
# Protocol: Animal experiments: Rodent studies were authorized by the Institutional Animal Care and Use Committees of UTHealth. Spontaneous cancer progression was modelled by injecting 2×10^4 4 T1.2 (mCherry+ Luciferase+) cells into the mammary fat pad of 10-week-old female Balb/c mice (Jackson Laboratory) with a 31-gauge needle. Primary tumor volume was measured weekly with calipers and calculated using the (length×width^2)/2 formula. At a tumor volume of ˜200 mm^3, mice were randomized into two cohorts and administered either vehicle (1×PBS) or cisplatin (Tocris Biosciences; 2.5 mg/kg) retro-orbitally once a week for three weeks. Metastatic progression was monitored with bioluminescence imaging. For experimental metastasis modeling in C57BL/6 mice (Jackson Laboratory), 1×10^5 B16F10 cells were intravenously injected into the tail vein and mice were used after 2 weeks. In both mice models, pulmonary metastases were observed 3 weeks post implantation. The screen for metastasis-homing peptides was performed using a 50:50 mixture of phage cyclic peptide libraries CX7C and CX8C (C: cysteine; X: any amino acid residue) provided by Erkki Koivunen (Arap et al., 2002). For every bio-panning round, a mouse with metastases (between weeks 3 and 4) was intravenously injected with 10^10 transducing units (TU) of the library. After 3 hours of circulation, the heart was perfused with 10 ml phosphate buffered saline (PBS). […] Selected phage were amplified through K91 E. coli infection and quantified via TU counting. For each round, clone enrichment was quantified based on recovery frequency among 96 phage peptide-coding inserts sequenced from PCR-amplified phage DNA (Kolonin et al., 2004). […] Radioactive uptake was measured using a Cobra II automated gamma counter (Packard) and expressed as percentage of the injected dose per gram tissue (% ID/g tissue).
# Immunofluorescence for tissue and cell analysis: Immunofluorescence on cells and formalin-fixed paraffin-embedded tissue sections was performed as described Zhang et al., 2012). […] Tissue and cell images were acquired with a Nikon Eclipse TE2000E Widefield Fluorescence Microscope (Nikon Instruments Inc.). Image quantification included 5 random microscopic fields of view at 20× magnification. Images were processed and analyzed with ImageJ software (NIH and University of Wisconsin). Cadherin co-localization was quantified based on the previously described ImageJ software object based-approach (JACoP) methodology based on the Mander's coefficient (Bolte and Cordelieres, 2006).
# (§3) Tissue biodistribution was analyzed by immunofluorescence using phage-specific antibodies. […]
# [5] = phage localization in cancer-free mice; details: mouse, in vivo
# Protocol: as §1, §3
# [6] = tested on: 4T1, B16F10 and MDA-MB-231 cancer cells that expressed N-cadherin but not E-cadherin; experiment: co-localization with cadherins in cultured cell lines; format: cell-based, murine, human; details: reduced E-Cadherin expression
# Protocol: Cell lines and primary cell culture: All cell lines were cultured in DMEM media (Hyclone) supplemented with penicillin-streptomycin (Gibco) and 10% fetal bovine serum (Atlas Biologicals). B16F10, MDA-MB-231, and 3T3L1 cell lines were from ATCC. 4T1.2 (4T1) cells expressing mCherry and Luciferase were a gift from S. Mani. Cisplatin-resistant 4T1.2 (4T1.2-CTX) cells were generated after treatment with cisplatin (Tocris Biosciences, 180 ng/mL).
# as §1, with “Secondary antibodies used: donkey Alexa 488-conjugated IgG (Invitrogen, 1:300) and Cy3-conjugated IgG (Jackson ImmunoResearch, 1:300). Biotinylated peptide internalization was visualized with Cy3-conjugated streptavidin IgG (Thermo Fischer Scientific, 1:50). Nuclei were stained with Hoechst 33258 (Invitrogen, 1:2000).” left out, “2006). […]” for “2006).”
# [7] = tested on: 4T1, B16F10 and MDA-MB-231 tumor cell lines; experiment: trypan blue exclusion assay, tumor cell lines; format: cell-based, murine, human; details: 0.1 mM
# Protocol: Peptides: The exemplary Hunter-killer (HK) peptides HK-BLMP5 and HK-BLMP6 were generated as “all-D-amino acid” cysteine-cyclized peptides (Celtek Bioscience). The proteolysis-resistant peptides were synthesized as acetate salts with an amino-hexanoic acid linker (NH—(CH2)5—CO) conjugating the BLMP and the apoptotic moiety KLAKLAKKLAKLAK (KLAKLAK2): SEQ ID NO:13. Following chromatographic purification, peptides were dissolved in PBS into 10 mM aliquots and stored frozen until further use. For the homing/internalization assay, peptides were biotin-labelled using the Sulfo-NHS-LC-Biotin Kit (APExBIO). Cells were plated in 24 well plates (1×10^5 cells/well), treated. Following treatment with either HK-BLMP6 (0.1 mM) or HK-BLMP5 (0.3 mM) in 0.5 ml serum free culture media for 8 hours, cells were stained with 0.4% Trypan Blue solution (MP Biomedicals) (Daquinag et al., 2016). For radioactive studies, 1,4,7,10-[…]-N′,N″,N′″,N″″-tetra-acetic acid (DOTA) t-Bu ester was purchased from Macrocyclics (Dallas, TX) and peptides were synthesized by Bachem Americas (Torrance, CA). DOTA-peptide conjugation was performed on solid-phase using previously described protocols (Azhdarinia et al., 2011). Radiolabeling with ^67GaCl3 and HPLC determination of purity were performed according to published procedures (Hernandez Vargas et al., 2019). […]
sequence,measurement,setting,value
CEGPMYAKC (disulfide 1-9 (inferred)) [BLMP3],non-specific uptake by 3T3L1 cells compared to phage-displayed BLMP6,[1],higher non-specific uptake
CGVLPYSLC (disulfide 1-9 (inferred)) [BLMP1],non-specific uptake by 3T3L1 cells compared to phage-displayed BLMP6,[1],higher non-specific uptake
CHLSFSTAC (disulfide 1-9 (inferred)) [BLMP4],non-specific uptake by 3T3L1 cells compared to phage-displayed BLMP6,[1],higher non-specific uptake
CLRHSSKIC (disulfide 1-9 (inferred)) [BLMP5],enrichment in the last round of bio-panning,[2],most significant enrichment
same,non-specific uptake by 3T3L1 cells compared to phage-displayed BLMP6,[1],higher non-specific uptake
same,binding to MDA-MB-231 cells,[3],exhibited binding
same,distribution within primary 4T1.2 tumor,[4],dispersed throughout the tumor
same,localization within macro-metastases,[4],localized predominantly along the invasive edges
same,localization to lungs in cancer-free mice,[5],lack of BLMP-phage localization to lungs
CRAGVGRGC (disulfide 1-9 (inferred)) [BLMP6],enrichment in the last round of bio-panning,[2],most significant enrichment
same,binding to MDA-MB-231 cells,[3],exhibited binding
same,distribution within primary 4T1.2 tumor,[4],observed selectively in a sub-population of cells associated with the vasculature
same,localization within macro-metastases,[4],abundant throughout
same,localization to lungs in cancer-free mice,[5],lack of BLMP-phage localization to lungs
same,binding to cisplatin-resistant 4T1.2 cells,[6],maintaining BLMP6 binding
CSGVGIASC (disulfide 1-9 (inferred)) [BLMP2],non-specific uptake by 3T3L1 cells compared to phage-displayed BLMP6,[1],higher non-specific uptake
"KLAKLAKKLAKLAK [KLAKLAK2, untargeted apoptosis-inducing moiety]",cell death (trypan blue),[7],No cancer cell death
